# Data taken from ChEMBL document CHEMBL4251720, “Estrogen Receptor (ER) Subtype Selectivity Identifies 8-Prenylapigenin as an ERβ Agonist from Glycyrrhiza inflata and Highlights the Importance of Chemical and Biological Authentication” (J Nat Prod, 2018).
# pEC50: −log10 of the molar value.
# What was measured:
# [1] = molecular target: T1, Estrogen receptor alpha (ERalpha) (Homo sapiens, UniProt P03372); assay: in vitro; details: Ishikawa cells, probe p-nitrophenol (so in the source) as alkaline phosphatase substrate
# T1 sequence (P03372 whole entry): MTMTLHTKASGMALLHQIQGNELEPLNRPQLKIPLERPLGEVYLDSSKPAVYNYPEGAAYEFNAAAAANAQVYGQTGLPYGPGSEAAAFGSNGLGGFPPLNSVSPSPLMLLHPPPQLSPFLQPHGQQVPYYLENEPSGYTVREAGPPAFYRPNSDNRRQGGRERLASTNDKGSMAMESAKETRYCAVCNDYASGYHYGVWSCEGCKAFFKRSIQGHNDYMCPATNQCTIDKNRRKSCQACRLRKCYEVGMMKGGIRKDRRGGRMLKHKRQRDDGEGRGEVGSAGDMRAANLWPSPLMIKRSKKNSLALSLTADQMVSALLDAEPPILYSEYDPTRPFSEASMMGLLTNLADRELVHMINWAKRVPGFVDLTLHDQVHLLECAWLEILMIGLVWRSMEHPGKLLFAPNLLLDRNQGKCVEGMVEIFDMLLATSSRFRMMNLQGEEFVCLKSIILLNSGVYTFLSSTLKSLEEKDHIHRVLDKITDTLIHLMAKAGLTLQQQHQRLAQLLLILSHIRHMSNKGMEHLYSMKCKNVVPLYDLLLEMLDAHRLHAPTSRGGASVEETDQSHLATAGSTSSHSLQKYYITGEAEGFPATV
# Description: Estrogenic activity at ERalpha in human Ishikawa cells assessed as induction of alkaline phosphatase activity using p-nitrophenol as substrate treated for 96 hrs followed by substrate addition by spectrophotometric method relative to estradiol
# Estrogen receptor [2] = molecular target: T2, Estrogen receptor (Homo sapiens, UniProt P03372)
# T2 sequence (P03372 whole entry): T1 sequence (P03372 whole entry)
# Description: Estrogenic activity at ERalpha in human Ishikawa cells assessed as induction of alkaline phosphatase activity using p-nitrophenol as substrate treated for 96 hrs followed by substrate addition by spectrophotometric method
# Estrogen receptor beta [3] = molecular target: T3, Estrogen receptor beta (Homo sapiens, UniProt Q92731)
# T3 sequence (Q92731 whole entry): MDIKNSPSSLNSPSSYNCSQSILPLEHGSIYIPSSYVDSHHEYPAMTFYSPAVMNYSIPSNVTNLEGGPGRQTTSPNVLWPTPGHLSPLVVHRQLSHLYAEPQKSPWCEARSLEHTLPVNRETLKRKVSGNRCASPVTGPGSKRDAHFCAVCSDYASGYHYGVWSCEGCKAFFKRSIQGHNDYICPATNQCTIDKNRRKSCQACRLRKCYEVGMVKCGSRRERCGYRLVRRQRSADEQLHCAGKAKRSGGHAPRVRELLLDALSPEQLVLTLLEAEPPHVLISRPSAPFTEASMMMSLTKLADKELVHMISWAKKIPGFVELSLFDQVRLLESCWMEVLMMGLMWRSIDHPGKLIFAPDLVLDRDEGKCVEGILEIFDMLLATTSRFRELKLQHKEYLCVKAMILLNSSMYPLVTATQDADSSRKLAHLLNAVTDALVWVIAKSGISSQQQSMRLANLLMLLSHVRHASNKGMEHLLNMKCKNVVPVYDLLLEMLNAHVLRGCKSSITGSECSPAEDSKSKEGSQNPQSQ
# Description: (§1) Estrogenic activity at ERbeta (unknown origin) expressed in human MDA-MB-231/beta41 cells after 18 hrs by renilla luciferase reporter gene assay
# Estrogen receptor beta [4] = molecular target: T3, Estrogen receptor beta; remark: listed apart in the source
# Description: as §1
# Estrogen receptor [5] = molecular target: T2, Estrogen receptor; assay: Estrogenic activity at ERalpha in human Ishikawa cells assessed as induction of alkaline phosphatase activity at 0.01 to 1 uM using […] as substrate treated for 96 hrs followed by substrate addition by spectrophotometric method; assay type: cell-based
compound,measurement,setting,value
CCCc1c(-c2ccc(O)cc2)nn(-c2ccc(O)cc2)c1-c1ccc(O)cc1 [PROPYLPYRAZOLETRIOL],Emax at 96 h,[1],119%
same,pEC50,Estrogen receptor [2],9.00
same,EC50,Estrogen receptor beta [3],Not Active
CC(C)=CCc1c(O)cc(O)c2c1O[C@H](c1ccc(O)cc1)CC2=O,pEC50,Estrogen receptor beta [4],8.30
COc1cc(O)c(C(=O)/C=C/c2ccc(O)cc2)cc1CC=C(C)C,Activity,Estrogen receptor [5],Not Active
